We go through three molecules from ChEMBL document CHEMBL3045819, “Potent limonoid insect antifeedant from Melia azedarach” (2002).

Common to all, as to format: functional
Assay [1] has as its system Epilachna. Put plainly: Antifeedant activity against larvae of Epilachna paenulata in Cucurbita maxima leaves at 0.5 ug/cm2 after 24 hr by leaf disc choice test.
Assay [2] deals with Spodoptera eridania. The assay can be described thus: Antifeedant activity against larvae of Spodoptera eridania in Cucurbita maxima leaves at 4 ug/cm2 after 24 hr by leaf disk choice test.
In assay [3] the test system is Spodoptera eridania. The assay can be described thus: Antifeedant activity against larvae of Spodoptera eridania in Cucurbita maxima leaves at 1 ug/cm2 after 24 hr by leaf disk choice test.
The subject of assay [4] is Epilachna. The assay can be described thus: Antifeedant activity against larvae of Epilachna paenulata in Cucurbita maxima leaves at 1 ug/cm2 after 24 hr by leaf disc choice test.
Assay [5] relates to Spodoptera eridania. Put plainly: Antifeedant activity against larvae of Spodoptera eridania in Cucurbita maxima leaves at 0.5 ug/cm2 after 24 hr by leaf disk choice test.
For assay [6], the system named is Epilachna. Put plainly: Antifeedant activity against larvae of Epilachna paenulata in Cucurbita maxima leaves at 4 ug/cm2 after 24 hr by leaf disc choice test.
For assay [7], the system named is Spodoptera eridania. Put plainly: Antifeedant activity against larvae of Spodoptera eridania in Cucurbita maxima leaves at 0.25 ug/cm2 after 24 hr by leaf disk choice test.
Assay [8] relates to Spodoptera eridania. Put plainly: Antifeedant activity against larvae of Spodoptera eridania in Cucurbita maxima leaves at 10 ug/cm2 after 24 hr by leaf disk choice test.
Assay [9] has as its system Spodoptera eridania. Put plainly: Antifeedant activity against larvae of Spodoptera eridania in Cucurbita maxima leaves at 14 ug/cm2 after 24 hr by leaf disk choice test.
Assay [10] concerns Epilachna. Put plainly: Antifeedant activity against larvae of Epilachna paenulata in Cucurbita maxima leaves at 10 ug/cm2 after 24 hr by leaf disc choice test.
Assay [11] relates to Epilachna. Put plainly: Antifeedant activity against larvae of Epilachna paenulata in Cucurbita maxima leaves at 8 ug/cm2 after 24 hr by leaf disc choice test.

With `CC(=O)O[C@@H]1C[C@H](O)[C@@]23CO[C@H](O)[C@]1(C)[C@@H]2C[C@@H](O)[C@]1(C)[C@@H]3C(=O)[C@H](O)[C@@]2(C)[C@H](c3ccoc3)C[C@H]3O[C@@]321` [12-HYDROXYAMOORASTATIN], the AFI in the assay on Epilachna [1] came out at 36.4%; in the assay on Spodoptera eridania [2], 95.5%; with Spodoptera eridania [3], 91.2%; with Epilachna [4], 52.1%; with Spodoptera eridania [5] it was 57.5%; in the assay on Epilachna [6], 96.1%. The AFI with Spodoptera eridania [7] stood at 35.5%.
As to `CC(=O)O[C@@H]1C[C@H](O)[C@@]23CO[C@@H](O)[C@]1(C)[C@@H]2C[C@@H](O)[C@]1(C)[C@@H]3C(=O)[C@H](OC(C)=O)[C@@]2(C)[C@H](c3ccoc3)C[C@H]3O[C@]321` [TOOSENDANIN], the AFI in the assay on Spodoptera eridania [8] worked out at 79.3%; with Spodoptera eridania [2] it was 71.8%; in the assay on Spodoptera eridania [3], 65.1%; with Spodoptera eridania [5], 58.7%; in the assay with Spodoptera eridania [9], 87.8%; with Epilachna [6], 54.8%. In addition, the AFI in the assay on Epilachna [10] is recorded as 90.7%; in the assay on Spodoptera eridania [7], 45.8%; in the assay on Epilachna [11], 78.2%.
Consider `C/C=C(\C)C(=O)O[C@H]1C[C@@H](OC(C)=O)[C@@]2(C(=O)OC)CO[C@H]3[C@@H](O)[C@@](C)([C@]45O[C@@]4(C)[C@@H]4C[C@H]5O[C@@H]5OC=C[C@@]54O)[C@H]4[C@]1(CO[C@]4(O)C(=O)OC)[C@@H]32` [AZADIRACHTIN A], for which the AFI was 35.7% with Epilachna [1]; 94% in the assay on Spodoptera eridania [2]; 94.2% in the assay on Spodoptera eridania [3]; 62.2% with Epilachna [4]; 91.2% in the assay with Spodoptera eridania [5]; 97.6% in the assay on Epilachna [6]. Moreover, the AFI in the assay on Spodoptera eridania [7] was 57.3%.
